Assay results taken from patent US11980620B2, “Compounds and methods for treatment of Diamond Blackfan anemia” (THE CHILDREN'S MEDICAL CENTER CORPORATION, priority 2017, dated 2024).

Key:
A53T alpha-synuclein = conditions: PC-12 cells; independent of rapamycin treatment; cited from earlier work
CB CD34+ RPS19sh cells = test: Erythroid differentiation of CB CD34+ progenitors transduced with shRNAs for RPS19; format: cell-based, human
Method: (FIG. 8A) The distribution of 1440 compounds by Z-score in a proliferation-based screen of the Sigma LOPAC chemical library. DBA CD34-5F cells were plated in erythroid-promoting conditions in 384-well format. Erythroid proliferation was measured in the presence of 5 μM of each compound, and converted into Z-scores. The screen was carried out with 3 RPS19 DBA and 2 normal iPSC lines. (FIG. 88) Dose-dependent effect of SMER28 (in μM) on erythroid differentiation, shown as the absolute number of erythroid cells in each drug-treated condition normalized to vehicle (DMSO) control. Erythroid cells were analyzed on day 9 of differentiation using markers CD71 and GlyA. […] (FIG. 8C) Absolute number of erythroid cells (analyzed on day 9) in each drug-treated condition normalized to vehicle (DMSO) control (4 independent experiments). […]
(FIG. 12A) Erythroid differentiation of control and DBA CD34-5F cells treated with DMSO vehicle or SMER28 (10 μM) during the initial CD34^+ progenitor phase (day 0-4 of differentiation), or stage I of erythroid culture (day 4-9 of differentiation). Percent of erythroid cells after stage I of differentiation is indicated in top left for each condition, and quantitated in (FIG. 12B). […] GFP^+ RPS19^sh and GFP^− control cells were quantitated separately. […] Arrows indicate enucleated RBCs, which are quantitated by flow cytometry. […]

LC3 = test: Autophagic marker LC3 levels in liver of treated mice; format: in vivo, mouse
Excerpt: FIGS. 11A-11C show effect of SMER28 on CD34+ progenitors. (FIG. 11A) Protein levels of LC3-I and LC3-II in control and SMER28 treated mice. GADPH is used as a loading control. […] (FIG. 11C) Atg5 morpholino treatment of rps29^+/− zebrafish.
In following evaluation, the effects of administration of SMER28 to mice with irradiation-induced anemia, a model that enables dose-finding and initial testing of safety and bioactivity. […] To assess bioactivity, we measured the levels of autophagic marker LC3 in treated animals. […] (FIG. 10C). We tested the effect of this compound on human cells by treating NSG mice transplanted with human CD34-5F and CB cells. SMER28 increased the output of GlyA^+ RBCs from DBA CD34-5F cells (FIG. 10D).

In the case of `C=CCNc1ncnc2ccc(Br)cc12` [SMER28, 6-Bromo-N-2-propenyl-4-quinazolinam], the A53T alpha-synuclein clearance (A53T alpha-synuclein) is listed as “Enhances”, the “erythroid output of RPS19sh cells” value (CB CD34+ RPS19sh cells; dose curve, highest activity at lower doses) is listed as “robustly increased” and the erythroid output (CB CD34+ RPS19sh cells; treatment of undifferentiated CD34+ RPS19sh cells) is listed as “sufficient to improve erythroid output”. For the same molecule, the “LC3-I and LC3-II levels in the liver” value (LC3) was “modestly increased”.
